{"source": "patent US20230190774A1", "about": "“METHOD OF USING SUBSTRATES OF AKR1Bl/AKR1B10 AS ANTI-CANCER DRUGS” (Beijing Normal University Hong Kong Baptist University …, priority 2015, published 2023)", "key": {"CaCo2 cells [1]": {"test_system": "CaCo2 cells", "experiment": "Cytotoxicity assay (cell survival rate, MTT)", "format": "cell-based", "conditions": "for Protection against 2DG toxicity by AKR1Bs inhibitor (survival rate): inhibitor 24 h, then 2DG (20 mM) for additional 48 h", "experimental": "(§1) HepG2 cells, SKOV3 cells, HCT116 cells and CaCo2 cells were cultured in DMEM medium, SW480 cells in 1640 medium, and HT29 cells in McCoy’s 5A medium. All cell culture media were supplemented with 10% FBS, 1% PSN, and cells were cultured in a humidified incubator containing 5% CO2 at 37° C. In cytotoxicity assays, cells were seeded at 1 × 10^5 cells/well in 96 well plates with full medium. In GSH assay and Western blot analysis, cells were seeded at 3× 10^6 cells/well in 6 well plates.\n(§2) The AKR1Bs substrates’ cytotoxicity was assessed by cell survival rate using MTT assay. After the cells were treated with the substrates for the length of time indicated, MTT was added to a final concentration of 0.5 mg/ml in each well of a 96-well plate, and the plates were incubated at 37° C. for 4 hour. Then DMSO was added to dissolve the formazan product, the amount of which is proportional to the number of live cells. The absorbance of dissolved dye was measured at 540 nm using an automatic microplate reader."}, "HepG2 cells [2]": {"test_system": "HepG2 cells", "experiment": "Cytotoxicity assay (cell survival rate, MTT)", "format": "cell-based", "conditions": "for Protection against 2DG toxicity by AKR1Bs inhibitor (survival rate): inhibitor 24 h, then 2DG (20 mM) for additional 48 h", "experimental": "as §1, §2"}, "SKOV3 cells [3]": {"test_system": "SKOV3 cells", "experiment": "Cytotoxicity assay (cell survival rate, MTT)", "format": "cell-based", "conditions": "for Protection against 2DG toxicity by AKR1Bs inhibitor (survival rate): inhibitor 24 h, then 2DG (20 mM) for additional 48 h", "experimental": "as §1, §2"}, "HCT116 cells [4]": {"test_system": "HCT116 cells", "experiment": "Cytotoxicity assay (cell survival rate, MTT)", "format": "cell-based", "conditions": "for Protection against 2DG toxicity by AKR1Bs inhibitor (survival rate): inhibitor 24 h, then 2DG (20 mM) for additional 48 h", "experimental": "as §1, §2"}, "CaCo2 cells [5]": {"test_system": "CaCo2 cells", "experiment": "GSH assay of cell lysates", "format": "cell-based", "conditions": "for Restoration of GSH level in 2DG treated cells by AKR1Bs inhibitor: inhibitor (40 µM) 24 h, then 2DG (20 mM) 48 h", "experimental": "as §1\n(§3) The cells were washed in cold PBS and then scraped into 300 µL of PBS. The cells were disrupted by ultrasonicator on ice followed by centrifuged at 3500 rpm at 4° C. The supernatant was transferred to a fresh tube and used for GSH assay using GSH assay kit. The concentrations of GSH in cell lysates were determined using the standard GSH calibration curve. The GSH detection for each sample was performed at least three times."}, "HepG2 cells [6]": {"test_system": "HepG2 cells", "experiment": "GSH assay of cell lysates", "format": "cell-based", "experimental": "as §1, §3"}, "SKOV3 cells [7]": {"test_system": "SKOV3 cells", "experiment": "GSH assay of cell lysates", "format": "cell-based", "experimental": "as §1, §3"}, "HCT116 cells [8]": {"test_system": "HCT116 cells", "experiment": "GSH assay of cell lysates", "format": "cell-based", "conditions": "for Restoration of GSH level in 2DG treated cells by AKR1Bs inhibitor: inhibitor (40 µM) 24 h, then 2DG (20 mM) 48 h", "experimental": "as §1, §3"}, "AKR1B1 [9]": {"target": "T1, AKR1B1 (Homo sapiens, UniProt P15121)", "experiment": "Enzyme activity assay (NADPH oxidation), purified AKR1B1", "format": "biochemical", "conditions": "20 mM substrate, pH 6.2, 30° C.", "experimental": "(§4) Assay of AKR1B1 and AKR1B10 enzymes activities were conducted in 1 ml of the reaction mixture containing 135 mM sodium phosphate buffer (pH 6.2 for AKR1B1 or pH 7.0 for AKR1B10), 0.2 mM NADPH, 0.3 M ammonium sulfate, 2 µg purified protein and 20 mM of their substrate as indicated. The reaction mix was incubated at 30° C. for 30 minutes (min). Protein-free blank controls were included. The decrease of NADPH was monitored by spectrophotometer at 340 nm. Enzyme activity was calculated as the amount of NADPH oxidized/min/mg of protein (Shen Y et al., Chem Biol Interact. 2011, 191(1-3): 192-198)."}, "AKR1B10 [10]": {"target": "T2, AKR1B10 (Homo sapiens, UniProt O60218)", "T2 sequence (O60218 whole entry)": "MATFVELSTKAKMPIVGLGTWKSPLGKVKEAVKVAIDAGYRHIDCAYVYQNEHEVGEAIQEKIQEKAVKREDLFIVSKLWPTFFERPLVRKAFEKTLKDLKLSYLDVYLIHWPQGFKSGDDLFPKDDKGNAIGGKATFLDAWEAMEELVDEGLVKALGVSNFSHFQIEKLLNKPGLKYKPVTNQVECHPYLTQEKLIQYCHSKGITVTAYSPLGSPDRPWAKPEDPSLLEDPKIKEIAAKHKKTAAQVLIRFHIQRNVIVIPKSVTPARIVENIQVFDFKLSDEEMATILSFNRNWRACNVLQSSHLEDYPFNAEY", "conditions": "ND = no detectable activity or less than 32 nmol/min/mg; cited from earlier work"}, "glycolysis": {"test_system": "glycolysis", "conditions": "background statement; cited from earlier work"}, "AKR1B1 [11]": {"target": "T1, AKR1B1", "conditions": "ND = no detectable activity or less than 32 nmol/min/mg; cited from earlier work"}, "AKR1B10 [12]": {"target": "T2, AKR1B10", "experiment": "Enzyme activity assay (NADPH oxidation), purified AKR1B10", "format": "biochemical", "conditions": "20 mM substrate, pH 7.0, 30° C.", "experimental": "as §4"}, "SW480 cells": {"test_system": "SW480 cells", "experiment": "Cytotoxicity assay (cell survival rate, MTT)", "format": "cell-based", "conditions": "substrate alone, 2DG for 72 hours", "experimental": "as §2, with “HepG2 cells, SKOV3 cells, HCT116 cells and CaCo2 cells were cultured in DMEM medium, SW480 cells in 1640 medium, and HT29 cells in McCoy’s 5A medium. […] In cytotoxicity assays, cells were seeded at 1 × 10^5 cells/well in 96 well plates with full medium. In GSH assay and Western blot analysis, cells were seeded at 3× 10^6 cells/well in 6 well plates. The AKR1Bs” for “The AKR1Bs”"}, "HT29 cells": {"test_system": "HT29 cells", "experiment": "Cytotoxicity assay (cell survival rate, MTT)", "format": "cell-based", "conditions": "substrate alone, 2DG for 72 hours", "experimental": "as §2, with “HepG2 cells, SKOV3 cells, HCT116 cells and CaCo2 cells were cultured in DMEM medium, SW480 cells in 1640 medium, and HT29 cells in McCoy’s 5A medium. […] In cytotoxicity assays, cells were seeded at 1 × 10^5 cells/well in 96 well plates with full medium. In GSH assay and Western blot analysis, cells were seeded at 3× 10^6 cells/well in 6 well plates. The AKR1Bs” for “The AKR1Bs”"}, "[13]": {"conditions": "inhibitor (40 µM) 24 h, then 2DG (20 mM) 48 h"}, "[14]": {"conditions": "substrate alone, 2DG for 72 hours"}}, "note": "Entries after “also recorded” stand apart in the source; their conditions may differ."}
{"compound": "COc1ccc2c(C(=S)N(C)CC(=O)O)cccc2c1C(F)(F)F", "note": "[Tolrestat]", "values": [{"measurement": "Protection against 2DG toxicity by AKR1Bs inhibitor (survival rate)", "setting": "CaCo2 cells [1]", "value": "dose-dependently protected"}, {"measurement": "Protection against 2DG toxicity by AKR1Bs inhibitor (survival rate)", "setting": "HepG2 cells [2]", "value": "dose-dependently protected"}, {"measurement": "Protection against 2DG toxicity by AKR1Bs inhibitor (survival rate)", "setting": "SKOV3 cells [3]", "value": "dose-dependently protected"}, {"measurement": "Protection against 2DG toxicity by AKR1Bs inhibitor (survival rate)", "setting": "HCT116 cells [4]", "value": "dose-dependently protected"}, {"measurement": "Restoration of GSH level in 2DG treated cells by AKR1Bs inhibitor", "setting": "CaCo2 cells [5]", "value": "significantly restored"}, {"measurement": "Restoration of GSH level in 2DG treated cells by AKR1Bs inhibitor", "setting": "HepG2 cells [6]; [13]", "value": "significantly restored"}, {"measurement": "Restoration of GSH level in 2DG treated cells by AKR1Bs inhibitor", "setting": "SKOV3 cells [7]; [13]", "value": "significantly restored"}, {"measurement": "Restoration of GSH level in 2DG treated cells by AKR1Bs inhibitor", "setting": "HCT116 cells [8]", "value": "significantly restored"}]}
{"compound": "NC(=O)[C@@H]1C[C@]2(NC(=O)NC2=O)c2cc(F)ccc2O1", "note": "[Fidarestat]", "values": [{"measurement": "Protection against 2DG toxicity by AKR1Bs inhibitor (survival rate)", "setting": "CaCo2 cells [1]", "value": "protected"}, {"measurement": "Protection against 2DG toxicity by AKR1Bs inhibitor (survival rate)", "setting": "HepG2 cells [2]", "value": "less effective in protecting"}, {"measurement": "Protection against 2DG toxicity by AKR1Bs inhibitor (survival rate)", "setting": "SKOV3 cells [3]", "value": "less effective in protecting"}, {"measurement": "Protection against 2DG toxicity by AKR1Bs inhibitor (survival rate)", "setting": "HCT116 cells [4]", "value": "protected"}, {"measurement": "Restoration of GSH level in 2DG treated cells by AKR1Bs inhibitor", "setting": "CaCo2 cells [5]", "value": "able to increase"}, {"measurement": "Restoration of GSH level in 2DG treated cells by AKR1Bs inhibitor", "setting": "HCT116 cells [8]", "value": "able to increase"}]}
{"compound": "O=CC[C@@H](O)[C@H](O)[C@H](O)CO", "note": "[2DG, 2-deoxyglucose]", "values": [{"measurement": "Cytotoxicity of AKR1Bs substrate (cell survival rate)", "setting": "CaCo2 cells [1]; [14]", "value": "more sensitive to 2DG than HepG2 and SKOV3"}, {"measurement": "Cytotoxicity of AKR1Bs substrate (cell survival rate)", "setting": "HepG2 cells [2]; [14]", "value": "more sensitive; also recorded: not as efficient as glyceraldehyde and diacetyl"}, {"measurement": "Cytotoxicity of AKR1Bs substrate (cell survival rate)", "setting": "SKOV3 cells [3]; [14]", "value": "more sensitive; also recorded: not as efficient as glyceraldehyde and diacetyl"}, {"measurement": "Cytotoxicity of AKR1Bs substrate (cell survival rate)", "setting": "HCT116 cells [4]; [14]", "value": "more sensitive to 2DG than HepG2 and SKOV3"}, {"measurement": "Efficiency as substrate of AKR1B1 (rate of NADPH depletion)", "setting": "AKR1B1 [9]", "value": "then 2DG"}, {"measurement": "Efficiency as substrate of AKR1B1 (rate of NADPH depletion)", "setting": "AKR1B1 [9]; listed as 2 DG", "value": "worst substrate among the three"}, {"measurement": "AKR1B10 activity, amount of NADPH (nmol) oxidized per min per mg of protein", "setting": "AKR1B10 [10]", "value": 87, "unit": "nmol/min/mg"}, {"measurement": "Inhibition of glycolysis", "setting": "glycolysis", "value": "15-40%"}, {"measurement": "AKR1B1 activity, amount of NADPH (nmol) oxidized per min per mg of protein", "setting": "AKR1B1 [11]", "value": 149, "unit": "nmol/min/mg"}, {"measurement": "Efficiency as substrate of AKR1B10 (rate of NADPH depletion)", "setting": "AKR1B10 [12]", "value": "then 2DG"}, {"measurement": "Efficiency as substrate of AKR1B10 (rate of NADPH depletion)", "setting": "AKR1B10 [12]; listed as 2 DG", "value": "worst substrate among the three"}, {"measurement": "GSH level in the presence of 2DG", "setting": "CaCo2 cells [5]; 2DG (20 mM) 48 h", "value": "decreased significantly"}, {"measurement": "GSH level in the presence of 2DG", "setting": "HepG2 cells [6]; 2DG (20 mM) 48 h", "value": "decreased significantly"}, {"measurement": "GSH level in the presence of 2DG", "setting": "SKOV3 cells [7]; 2DG (20 mM) 48 h", "value": "decreased significantly"}, {"measurement": "GSH level in the presence of 2DG", "setting": "HCT116 cells [8]; 2DG (20 mM) 48 h", "value": "decreased significantly"}, {"measurement": "Cytotoxicity of AKR1Bs substrate (cell survival rate)", "setting": "SW480 cells", "value": "more resistant"}, {"measurement": "Cytotoxicity of AKR1Bs substrate (cell survival rate)", "setting": "HT29 cells", "value": "more resistant"}]}
{"compound": "O=C[C@H](F)[C@@H](O)[C@H](O)[C@H](O)CO", "note": "[2FDG, 2-fluorodeoxy-D-glucose]", "values": [{"measurement": "Potency as glycolysis inhibitor relative to 2DG", "setting": "glycolysis", "value": "more potent glycolysis inhibitor than 2DG"}]}
